The text below walks through data of patent US20250171457A1, “NITROGEN-CONTAINING HETEROCYCLIC COMPOUND HAVING NRF2 ACTIVATION EFFECT” (CHUGAI SEIYAKU KABUSHIKI KAISHA, priority 2022, published 2025).

The subject of test [1] is Nrf2 transcriptional activity (pARE-Luc reporter) in HepG2 cells. The experiment in a line: In vitro Nrf2 transcriptional activity measurement by ARE-dependent reporter assay in HepG2 cell. It is filed as cell-based, human. The method, boiled down: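 HepG2 cells transfected with pGL4.37 (pARE-Luc), replated onto compound and incubated 4 h at 37° C; luciferase read by Bright-Glo luminescence. Response normalized to 100% set by a reference compound at 3.75 μM; EC50 from dose-response curve.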
On the technique in general: In a reporter assay the amount or activity of a reporter protein is the signal.

The subject of test [2] is Nqo1 (NAD(P)H quinone dehydrogenase 1) mRNA, Nrf2 downstream molecule. Put plainly: In vivo Nrf2 transcriptional activity measurement (Nqo1 mRNA in organs by qPCR). To be noted: Mus musculus, C57BL/6J mice, 7 to 8 hours; for fold induction at 10 mg/kg / fold induction at 15 mg/kg: ip, Intraperitoneal; for fold induction at 30 mg/kg: Oral. Here is the method: Test Example 2: In Vivo Nrf2 Transcriptional Activity Measurement
A test compound (solvent: 10 vol % dimethyl sulfoxide/50 mM glycine/32 mM sodium hydroxide/physiological saline) was administered to C57BL/6J mice (7-8 weeks old), which were euthanized by whole blood collection under isoflurane anesthesia 7 to 8 hours later, followed by the collection of various organs. mRNA was purified from the collected organs, and the mRNA expression level of Mapk1 as an internal control and the mRNA expression level of Nqo1 (NAD(P)H quinone dehydrogenase 1) as a typical Nrf2 downstream molecule were each measured by qPCR. The Nqo1 mRNA expression level was quantified by comparative CT, and an expression level ratio to a non-administration group was calculated. The administration of the test compound elevated the Nqo1 mRNA expression level in the various organs, confirming that the test compound also has a Nrf2-activating effect in vivo.
A general note: In qPCR the cycle at which signal appears reflects the starting amount.

[3] abbreviates: Homo sapiens, HepG2 cells transfected with pARE-Luc, 4 hours at 37° C., luciferase activity of Example 1-54 or Example 17-23 at 3.75 μM defined as 100%.
The mark [4] stands for this setting: kidney, read-out: Nqo1 mRNA expression level ratio to non-administration group, Kidney.
Setting [5] is: liver, read-out: Nqo1 mRNA expression level ratio to non-administration group, Liver.
The mark [6] stands for this setting: lung, read-out: Nqo1 mRNA expression level ratio to non-administration group, Lung.

In general, EC50 refers to the concentration at which the effect is half-maximal.

Read-outs that look alike come from different tables or passages of the source.

Consider `CO[C@@H]1CN(c2cc(Cl)c(C(=O)N3COc4c(cccc4-c4cc(N5C6CCC5COC6)c(C(=O)O)cc4F)C3)c(Cl)c2)[C@@H]1C` [Compound 1-4, 4-[3-[2,6-Dichloro-4-[(2R,3R)-3-methoxy-2-methylazetidin-1-yl]benzoyl]-2,4-dihydro-1,3-benzoxazin-8-yl]-5-fluoro-2-(3-oxa-8-azabicyclo[3.2.1]octan-8-yl)benzoic acid], for which the EC50 in test [1] (setting [3]) stood at 1.6 nM. The fold induction at 10 mg/kg was determined as 4.4 in test [2] (setting [4]), 6.5 in test [2] (setting [5]) and 13 in test [2] (setting [6]). Besides, the results for the fold induction at 30 mg/kg in test [2] (setting [4]), in test [2] (setting [5]) and in test [2] (setting [6]) were 5, 8.1 and 20, respectively.
Regarding `O=C(O)c1cc(F)c(-c2cccc3c2OCN(C(=O)c2c(Cl)cc(N4CC5(CCOCC5)C4)cc2Cl)C3)cc1N1C2CCC1COC2` [Compound 1-18, 4-[3-[2,6-Dichloro-4-(7-oxa-2-azaspiro[3.5]nonan-2-yl)benzoyl]-2,4-dihydro-1,3-benzoxazin-8-yl]-5-fluoro-2-(3-oxa-8-azabicyclo[3.2.1]octan-8-yl)benzoic acid], the EC50 in test [1] (setting [3]) came to 4.3 nM. In addition, the fold induction at 10 mg/kg in test [2] (setting [4]) was determined as 2.5; in test [2] (setting [5]), 6; in test [2] (setting [6]), 8.7.
On the same counts, the results for `O=C(O)c1cc(F)c(-c2cccc3c2OCN(C(=O)c2c(Cl)cc(N4CC5(CC(OC(F)F)C5)C4)cc2Cl)C3)cc1N1C2CCC1COC2` [Compound 1-21, 4-[3-[2,6-Dichloro-4-[6-(difluoromethoxy)-2-azaspiro[3.3]heptan-2-yl]benzoyl]-2,4-dihydro-1,3-benzoxazin-8-yl]-5-fluoro-2-(3-oxa-8-azabicyclo[3.2.1]octan-8-yl)benzoic acid] are 2.9 nM, 3.7, 4.7 and 10.
Turning to `C[C@@H]1CN(C)CCN1c1cc(Cl)c(C(=O)N2COc3c(cccc3-c3cc(N4C5CCC4COC5)c(C(=O)O)cc3F)C2)c(Cl)c1` [Compound 1-33, 4-[3-[2,6-Dichloro-4-[(2R)-2,4-dimethylpiperazin-1-yl]benzoyl]-2,4-dihydro-1,3-benzoxazin-8-yl]-5-fluoro-2-(3-oxa-8-azabicyclo[3.2.1]octan-8-yl)benzoic acid], a half-maximal response in test [1] (HepG2 cells, pARE-Luc reporter, 4 hours, 100% = Example 1-54 or Example 17-23 at 3.75 μM (repeat print of Table 20-1)) (EC50) required 1.9 nM. Moreover, the fold induction at 10 mg/kg in test [2] (setting [4]) was 3.7; in test [2] (setting [5]), 5.5; in test [2] (setting [6]) it was 13. The fold induction at 30 mg/kg in test [2] (setting [4]) is 5.1; in test [2] (setting [5]) it was 5.2; in test [2] (setting [6]) it was 18.
The compound `COCCN1CCN(c2cc(Cl)c(C(=O)N3COc4c(cccc4-c4cc(N5CCOCC5)c(C(=O)O)cc4F)C3)c(Cl)c2)CC1` [Compound 1-54, 4-[3-[2,6-Dichloro-4-[4-(2-methoxyethyl)piperazin-1-yl]benzoyl]-2,4-dihydro-1,3-benzoxazin-8-yl]-5-fluoro-2-morpholin-4-ylbenzoic acid] gave a concentration for a half-maximal effect (EC50) in test [1] (setting [3]) of 1.5 nM. Further, the figures for the fold induction at 10 mg/kg in test [2] (setting [4]), in test [2] (setting [5]) and in test [2] (setting [6]) were 4.6, 6.7 and 18, respectively. Moreover, the fold induction at 30 mg/kg in test [2] (setting [4]) is 4.9; in test [2] (setting [5]) it was 7.4; in test [2] (setting [6]), 20.
`COC1CC2(C1)CN(c1cc(Cl)c(C(=O)N3COc4c(cccc4-c4ccc(C(=O)O)c(N5C6CCC5COC6)c4)C3)c(Cl)c1)C2` [Compound 1-83, 4-[3-[2,6-Dichloro-4-(6-methoxy-2-azaspiro[3.3]heptan-2-yl)benzoyl]-2,4-dihydro-1,3-benzoxazin-8-yl]-2-(3-oxa-8-azabicyclo[3.2.1]octan-8-yl)benzoic acid]: the EC50 in test [1] (setting [3]) was found to be 2.4 nM. The fold induction at 15 mg/kg amounted to 4.7 in test [2] (setting [4]), 6.5 in test [2] (setting [5]) and 21 in test [2] (setting [6]).
The compound `CN1C[C@@H]2CC[C@H]1CN2c1cc(Cl)c(C(=O)N2COc3c(cccc3-c3cc(N4C5CCC4COC5)c(C(=O)O)cc3F)C2)c(Cl)c1` [Compound 20-3, 4-[3-[2,6-Dichloro-4-[(1S,4S)-5-methyl-2,5-diazabicyclo[2.2.2]octan-2-yl]benzoyl]-2,4-dihydro-1,3-benzoxazin-8-yl]-5-fluoro-2-(3-oxa-8-azabicyclo[3.2.1]octan-8-yl)benzoic acid] showed a half-maximal effective concentration (EC50) in test [1] (setting [3]) of 40 nM. This lies in the double-digit nanomolar range.
Still for that read-out and setting: the figure for `CN1C2CC1CN(c1cc(Cl)c(C(=O)N3COc4c(cccc4-c4cc(N5C6CCC5COC6)c(C(=O)O)cc4F)C3)c(Cl)c1)C2` [Compound 20-4, 4-[3-[2,6-Dichloro-4-(6-methyl-3,6-diazabicyclo[3.1.1]heptan-3-yl)benzoyl]-2,4-dihydro-1,3-benzoxazin-8-yl]-5-fluoro-2-(3-oxa-8-azabicyclo[3.2.1]octan-8-yl)benzoic acid] is 150 nM.
Same read-out and setting: the result for `O=C(O)c1cc(F)c(-c2cccc3c2OCN(C(=O)c2c(Cl)cc(N4CC5CC(C4)N5C4COC4)cc2Cl)C3)cc1N1C2CCC1COC2` [Compound 20-5, 4-[3-[2,6-Dichloro-4-[6-(oxetan-3-yl)-3,6-diazabicyclo[3.1.1]heptan-3-yl]benzoyl]-2,4-dihydro-1,3-benzoxazin-8-yl]-5-fluoro-2-(3-oxa-8-azabicyclo[3.2.1]octan-8-yl)benzoic acid] reads 75 nM; that for `O=C(O)c1cc(F)c(-c2cccc3c2OCN(C(=O)c2c(Cl)cc(N4C5CC4CN(C4COC4)C5)cc2Cl)C3)cc1N1C2CCC1COC2` [Compound 20-6, 4-[3-[2,6-Dichloro-4-[3-(oxetan-3-yl)-3,6-diazabicyclo[3.1.1]heptan-6-yl]benzoyl]-2,4-dihydro-1,3-benzoxazin-8-yl]-5-fluoro-2-(3-oxa-8-azabicyclo[3.2.1]octan-8-yl)benzoic acid], 48 nM; that for `COCCN1C[C@@H]2C[C@H]1CN2c1cc(Cl)c(C(=O)N2COc3c(cccc3-c3cc(N4C5CCC4COC5)c(C(=O)O)cc3F)C2)c(Cl)c1` [Compound 20-7, 4-[3-[2,6-Dichloro-4-[(1S,4S)-5-(2-methoxyethyl)-2,5-diazabicyclo[2.2.1]heptan-2-yl]benzoyl]-2,4-dihydro-1,3-benzoxazin-8-yl]-5-fluoro-2-(3-oxa-8-azabicyclo[3.2.1]octan-8-yl)benzoic acid], 14 nM.
Still for that read-out and setting: the result for `O=C(O)c1cc(F)c(-c2cccc3c2OCN(C(=O)c2c(Cl)cc(N4CCNCC4)cc2Cl)C3)cc1N1C2CCC1COC2` [Compound 20-8, 4-[3-(2,6-Dichloro-4-piperazin-1-ylbenzoyl)-2,4-dihydro-1,3-benzoxazin-8-yl]-5-fluoro-2-(3-oxa-8-azabicyclo[3.2.1]octan-8-yl)benzoic acid] reads 18 nM; that for `CN1CCN(c2cc(Cl)c(C(=O)N3COc4c(cccc4-c4cc(N5C6CCC5COC6)c(C(=O)O)cc4F)C3)c(Cl)c2)CC12CC2` [Compound 20-9, 4-[3-[2,6-Dichloro-4-(4-methyl-4,7-diazaspiro[2.5]octan-7-yl)benzoyl]-2,4-dihydro-1,3-benzoxazin-8-yl]-5-fluoro-2-(3-oxa-8-azabicyclo[3.2.1]octan-8-yl)benzoic acid], 14 nM.
`Cc1cnn(C2CN(c3cc(Cl)c(C(=O)N4COc5c(cccc5-c5cc(N6C7CCC6COC7)c(C(=O)O)cc5F)C4)c(Cl)c3)C2)c1` [Compound 20-13, 4-[3-[2,6-Dichloro-4-[3-(4-methylpyrazol-1-yl)azetidin-1-yl]benzoyl]-2,4-dihydro-1,3-benzoxazin-8-yl]-5-fluoro-2-(3-oxa-8-azabicyclo[3.2.1]octan-8-yl)benzoic acid] registered an EC50 in test [1] (setting [3]) of 5.5 nM.
